# In patent US12370239B2, “Microvascular blood flow decreasing agent and use thereof” (priority 2016, dated 2025):
# Entries after “also recorded” stand apart in the source; their conditions may differ.
# Key:
# Format in all cases: in vivo, human
# microvasculature = test: Contrast imaging of microvascular blood flow / vessel density after infusion
# Protocol: When it is used for decreasing microvascular blood flow according to the present invention, the dose of the immune checkpoint inhibitor to be administered will vary depending on the type of the immune checkpoint inhibitor to be administered, though a skilled person can calculate an appropriate amount.
# It was shown that each of the immune checkpoint inhibitors causes a clear change in tumor hemodynamics by single-agent administration 2 to 3 minutes after the infusion from the tumor vessel. Moreover, an immediate relief from cancerous pain by administration is also confirmed. Adding to these, their original effect of inhibiting immune checkpoint can also be expected, providing a prospective of relatively longer lasting effect by administration of single agent.
# In all cases, fat suppression T2-weighted MRI image was obtained before treatment to select target vessels. 3Fr intraarterial-indwelling sheath (Medikit Co., Ltd.) was inserted from femoral artery by Seldinger method, allowed to reach the target vessel using 3Fr angiography catheter (Medikit Co., Ltd.), Radifocus 0.032″ external diameter guide wire (TERUMO Corp.), and microcatheter ASAHI Tellus C3, ASAHI Meister 0.016″ micro guide wire (ASAHI INTECC Co., Ltd.) as appropriate, then abnormal vascular networks are identified by contrast imaging. […]
# tumor = test: Endovascular therapy case reports, tumor response (Example 3); parameters: key: CR indicates an elimination of tumor from the imaging; PR indicates >50% reduction of tumor diameter; MR indicates >30% reduction of tumor diameter; NC indicates <30% reduction of tumor diameter; PD indicates an increase in tumor diameter
# Protocol: Short-term tumor-reducing effect in 1 month after the administration was assessed by MRI or CT imaging. In the table, CR indicates an elimination of tumor from the imaging, PR indicates >50% reduction of tumor diameter, MR indicates >30% reduction of tumor diameter, NC indicates <30% reduction of tumor diameter, and PD indicates an increase in tumor diameter.
# To Patient A who had suffered from breast cancer, an endovascular therapy was carried out using nivolumab 10 mg, pertuzumab 60 mg, bortezomib 0.7 mg, thrombomodulin 3200 U and maxacalcitol 10 μg. This patient was marked as CR by such treatment.
# To Patient B who had suffered from malignant fibrous histiocytoma in right femur, an endovascular therapy was carried out using 20 mg of nivolumab. This patient was marked as CR after 3 treatments using 20 mg of nivolumab per each administration.
# To Patience C who had suffered from hepatitis C and had developed liver cancer, an endovascular therapy was carried out using nivolumab 10 mg, bortezomib 0.7 mg, etanercept 25 mg, maxacalcitol 10 μg and imipenem/cilastatin sodium 500 mg/body for each administration. This patient was marked as CR after two treatments.
# (§1) This patient was subjected to an endovascular therapy using nivolumab 10 mg, bortezomib 0.7 mg, etanercept 25 mg, maxacalcitol 10 μg, and thrombomodulin 3200 U, and was marked as CR by such treatment. […] FIG. 4 is a graph showing the transition of % IS of BCR-ABL mRNA before and after the endovascular therapy for the […] in this patient.
# BCR-ABL mRNA = test: % IS of BCR-ABL mRNA, marker for chronic myeloid leukemia, before and after endovascular therapy; details: Patient D, after endovascular therapy for bladder cancer (time point 2 to 3, FIG. 4)
# Protocol: as §1
# [1] = system: blood vessels at a site having prolonged pain; test: Endovascular therapy to blood vessels at a site having prolonged pain, symptom improvement and side effects (Example 4); parameters: key to Effect (improvement in symptoms): an exacerbation in symptom=0; no change=1; an improvement in symptom and easiness in dairy living=2; almost satisfactory improvement=3; Side effect: scale not given here
# Protocol: To 14 subject cases indicated in the table below who had blood vessels at a site having prolonged pain, endovascular therapy was carried out as follows, using pembrolizumab.
# In all cases, fat suppression T2-weighted MRI image was obtained before treatment to select target vessels. 3Fr intraarterial-indwelling sheath (Medikit Co., Ltd.) was inserted from femoral artery by Seldinger method, allowed to reach the target vessel using 3Fr angiography catheter (Medikit Co., Ltd.), Radifocus 0.032″ external diameter guide wire (TERUMO Corp.), and microcatheter ASAHI Tellus C3, ASAHI Meister 0.016″ micro guide wire (ASAHI INTECC Co., Ltd.) as appropriate, then abnormal vascular networks are identified by contrast imaging.
# Subsequently, as shown in the table, pembrolizumab 1 to 4 mg/body (mean=1.86 mg/body, median=2 mg/body) was mixed with the combined drugs in 100 ml of physiological saline, stirred with a stirrer while being infused into the target vessel in an amount such that a sufficient decrease in abnormal vessel density was confirmed.
# The level of post-treatment improvement in symptoms was assessed after 3 weeks or longer. A stepwise assessment was done as follows: an exacerbation in symptom=0, no change=1, an improvement in symptom and easiness in dairy living=2, almost satisfactory improvement=3.
substance,measurement,setting,value
ipilimumab,tumor vessel density-decreasing effect,"microvasculature; by itself, injection into nutrient artery",strong tumor vessel density-decreasing effect
nivolumab,tumor response,"tumor; Patient A, breast cancer, nivolumab 10 mg with pertuzumab 60 mg, bortezomib 0.7 mg, thrombomodulin 3200 U, maxacalcitol 10 μg",CR
same,tumor response,"tumor; Patient B, malignant fibrous histiocytoma in right femur (metastasis to lung), after 3 treatments, 20 mg of nivolumab per administration",CR
same,tumor response,"tumor; Patient C, liver cancer (hepatitis C), stage II, after two treatments, nivolumab 10 mg with bortezomib 0.7 mg, etanercept 25 mg, maxacalcitol 10 μg, imipenem/cilastatin sodium 500 mg/body",CR
same,tumor response,"tumor; Patient D, bladder cancer (chronic myeloid leukemia), stage II, nivolumab 10 mg with bortezomib 0.7 mg, etanercept 25 mg, maxacalcitol 10 μg, thrombomodulin 3200 U",CR
same,% IS of BCR-ABL mRNA,BCR-ABL mRNA,decreased
pembrolizumab,Side effect,"[1]; Case 1, Left gonarthritis, P 1 mg/body + imp/cs 500, bv 50, bort 0.35, maxa 10",0
same,Effect (improvement in symptoms),"[1]; Case 1, Left gonarthritis, P 1 mg/body + imp/cs 500, bv 50, bort 0.35, maxa 10, after 3 weeks or longer",1
same,Effect (improvement in symptoms),"[1]; Case 2, Elbow joint RA 5 y, P 4 mg/body + eta 25, bort 0.35, imp/cs 500, after 3 weeks or longer",3
same,Side effect,"[1]; Case 2, Elbow joint RA, P 4 mg/body + eta 25, bort 0.35, imp/cs 500",0
same,Effect (improvement in symptoms),"[1]; Case 3, Hip osteoarthritis 5 y, P 3 mg/body + eta 25, bort 0.35, maxa 10, imp/cs 501, after 3 weeks or longer",3
same,Side effect,"[1]; Case 3, Hip osteoarthritis, P 3 mg/body + eta 25, bort 0.35, maxa 10, imp/cs 501",0
same,Side effect,"[1]; Case 4, Left shoulder pain, P 3 mg/body + bort 0.35",0
same,Effect (improvement in symptoms),"[1]; Case 4, Left shoulder pain, P 3 mg/body + bort 0.35, after 3 weeks or longer",3
same,Effect (improvement in symptoms),"[1]; Case 5, Lumbar spinal stenosis 5 y, P 2 mg/body + bort 0.36, after 3 weeks or longer",2
same,Side effect,"[1]; Case 5, Lumbar spinal stenosis, P 2 mg/body + bort 0.36",0
same,Side effect,"[1]; Case 6, Right foot Lisfranc joint injury, P 1 mg/body + bv 50, bort 0.35, eta 25, maxa 10",0
same,Effect (improvement in symptoms),"[1]; Case 6, Right foot Lisfranc joint injury, P 1 mg/body + bv 50, bort 0.35, eta 25, maxa 10, after 3 weeks or longer",3
same,Effect (improvement in symptoms),"[1]; Case 7, Low back pain after spinal compression fracture 1.5 y, P 1 mg/body + bort 0.35, eta 25, maxa 10, reco 3200, after 3 weeks or longer",2
same,Side effect,"[1]; Case 7, Low back pain after spinal compression fracture, P 1 mg/body + bort 0.35, eta 25, maxa 10, reco 3200",0
same,Effect (improvement in symptoms),"[1]; Case 8, Right knee RA 3.8 y, P 2 mg/body + bort 0.35, eta 25, reco 3200, after 3 weeks or longer",2
same,Side effect,"[1]; Case 8, Right knee RA, P 2 mg/body + bort 0.35, eta 25, reco 3200",0
same,Effect (improvement in symptoms),"[1]; Case 9, Bilateral knee joint replacement postoperation 1.5 y, P 2 mg/body + eta 25, imp/cs 500, after 3 weeks or longer",1
same,Side effect,"[1]; Case 9, Bilateral knee joint replacement postoperation, P 2 mg/body + eta 25, imp/cs 500",0
same,Side effect,"[1]; Case 10, Piriformis syndrome, P 1 mg/body + bort 0.35, eta 25, reco 3200",0
same,Effect (improvement in symptoms),"[1]; Case 10, Piriformis syndrome, P 1 mg/body + bort 0.35, eta 25, reco 3200, after 3 weeks or longer",2
same,Side effect,"[1]; Case 11, Left Achilles peritendinitis, P 1 mg/body",0
same,Effect (improvement in symptoms),"[1]; Case 11, Left Achilles peritendinitis, P 1 mg/body, no combined drug printed, after 3 weeks or longer",3
same,Side effect,"[1]; Case 12, Bilateral gonarthrosis, P 2 mg/body",0
same,Effect (improvement in symptoms),"[1]; Case 12, Bilateral gonarthrosis, P 2 mg/body, no combined drug printed, after 3 weeks or longer",2
same,Side effect,"[1]; Case 13, Left gonarthrosis, foot arthritis, P 2 mg/body",0
same,Effect (improvement in symptoms),"[1]; Case 13, Left gonarthrosis, foot arthritis, P 2 mg/body, no combined drug printed, after 3 weeks or longer",1
same,Side effect,"[1]; Case 14, Right foot joint MFP syndrome, P 1 mg/body",0
same,Effect (improvement in symptoms),"[1]; Case 14, Right foot joint MFP syndrome, P 1 mg/body, no combined drug printed, after 3 weeks or longer",2
same,side effects considered to be caused by the therapy,"[1]; all 14 cases, including minor side effects such as transient fever",No side effect; also recorded: without any side effects
same,cases with rating of 2 or more (improvement in symptom),"[1]; out of 14 cases, pembrolizumab 1 to 4 mg/body into target vessel, after 3 weeks or longer",11
same,chronic pain,"[1]; selective arterial infusion to the site of pain, 1 to 2 mg/body, diluted at 1 to 2% in physiological saline",cancellation of chronic pain
same,abnormal microvascular density,"microvasculature; Cases 7 and 8, 2 minutes after drug administration (FIGS. 5 and 6)",significant decrease in abnormal microvascular density
